This is an account of results in ChEMBL document CHEMBL3769402, “Discovery of novel N,N-3-phenyl-3-benzylaminopropionanilides as potent inhibitors of cholesteryl ester transfer protein in vivo” (Bioorg Med Chem, 2016).

For series [1], the target named is T1, Cholesteryl ester transfer protein (Homo sapiens, UniProt P11597).
T1 sequence (P11597 whole entry): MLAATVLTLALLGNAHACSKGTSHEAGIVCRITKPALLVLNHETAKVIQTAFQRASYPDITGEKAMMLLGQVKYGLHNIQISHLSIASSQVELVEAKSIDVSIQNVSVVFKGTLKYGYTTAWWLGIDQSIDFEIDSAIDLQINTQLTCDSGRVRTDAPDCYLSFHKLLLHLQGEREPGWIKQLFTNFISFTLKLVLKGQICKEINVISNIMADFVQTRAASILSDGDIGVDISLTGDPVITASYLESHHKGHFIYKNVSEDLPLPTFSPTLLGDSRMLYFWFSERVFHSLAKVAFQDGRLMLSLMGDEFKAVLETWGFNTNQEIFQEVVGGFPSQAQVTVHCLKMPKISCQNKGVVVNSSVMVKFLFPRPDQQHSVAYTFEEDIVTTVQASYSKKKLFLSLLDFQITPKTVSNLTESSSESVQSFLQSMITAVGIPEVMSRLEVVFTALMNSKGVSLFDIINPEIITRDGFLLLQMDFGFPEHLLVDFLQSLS
Briefly: Inhibition of full-length human recombinant CETP expressed in CHO cells by BODIPY-CE dye based fluorescence assay. It is filed as cell-based.

For series [2], the system named is CYP450. Briefly: Drug metabolism in KM rat liver microsomes assessed as CYP450 mediated compound oxidation at 100 uM after 17.1 min by LC-MS/MS analysis in presence of NADPH. It is filed as ADME. As to conditions: read-out: Drug metabolism.
The subject of series [3] is CYP450. Briefly: Drug metabolism in KM rat liver microsomes assessed as CYP450 mediated compound reduction at 100 uM after 17.1 min by LC-MS/MS analysis in presence of NADPH. It is filed as ADME. As to conditions: read-out: Drug metabolism. Background: Liver microsomes are vesicles of endoplasmic reticulum, rich in cytochrome P450 enzymes.
Series [4] relates to Syrian golden hamster. Briefly: Decrease in LDL-cholesterol level in high cholesterol/lipid diet fed po dosed golden syrian hamster administered daily for 4 weeks. In kind it is functional, organism-based. As to conditions: Mesocricetus auratus.
Series [5] has as its system Syrian golden hamster. Description: Decrease in LDL-cholesterol level in high cholesterol/lipid diet fed golden syrian hamster at 20 mg/kg/day, po for 4 weeks. In kind it is functional. As to conditions: Mesocricetus auratus, 672 h.
Series [6] relates to Syrian golden hamster. Briefly: Decrease in LDL-cholesterol level in high cholesterol/lipid diet fed golden syrian hamster at 50 mg/kg/day, po for 4 weeks. It is filed as functional. Particulars: Mesocricetus auratus, 672 h.
Series [7] deals with Syrian golden hamster. Briefly: Decrease in LDL-cholesterol level in high cholesterol/lipid diet fed golden syrian hamster at 100 mg/kg/day, po for 4 weeks. Particulars: Mesocricetus auratus, 672 h. It is filed as functional.
Series [8] concerns Syrian golden hamster. Briefly: Increase in HDL-cholesterol level in high cholesterol/lipid diet fed po dosed golden syrian hamster administered daily for 4 weeks. It is filed as functional, organism-based. As to conditions: Mesocricetus auratus.
Series [9] relates to Syrian golden hamster. Briefly: Increase in HDL-cholesterol level in high cholesterol/lipid diet fed golden syrian hamster at 20 mg/kg/day, po for 4 weeks. It is filed as functional, Mesocricetus auratus.
For series [10], the system named is Syrian golden hamster. Description: Increase in HDL-cholesterol level in high cholesterol/lipid diet fed golden syrian hamster at 50 mg/kg/day, po for 4 weeks. It is filed as functional, Mesocricetus auratus.
Series [11] has as its system Syrian golden hamster. Briefly: Increase in HDL-cholesterol level in high cholesterol/lipid diet fed golden syrian hamster at 100 mg/kg/day, po for 4 weeks. It is filed as functional, Mesocricetus auratus.
Series [12] relates to Syrian golden hamster. Briefly: Toxicity in golden syrian hamster assessed as mortality at 20 to 100 mg/kg/day, po for 4 weeks. It is filed as organism-based, Mesocricetus auratus. Particulars: in vivo, 672 h.

Molecules are shown by their SMILES. Bounds are passed on as bounds.

Broadly, the IC50 is the midpoint of a concentration-inhibition curve. As for `CCOC(=O)c1ccc(N2CCN(C(=O)CCN(Cc3ccc(F)cc3)c3ccc(Oc4ccccc4)cc3)CC2)cc1`, the IC50 in series [1] amounted to 6.7 µM. For `O=C(CCN(Cc1ccc(F)cc1)c1ccc(Cl)c(Cl)c1)Nc1ccc(C(=O)O)cc1`, the IC50 in [1] amounted to 9.1 µM. The same measure, in the same setting: the result for `CCOC(=O)c1ccc(N2CCN(C(=O)CCN(Cc3ccc(C(F)(F)F)cc3)c3ccc(Cl)c(Cl)c3)CC2)cc1` reads 18.2 µM; that for `CCOC(=O)c1ccc(NC(=O)CCN(Cc2cc(C(F)(F)F)cc(C(F)(F)F)c2)c2ccc(Cl)c(Cl)c2)cc1`, 5.4 µM.

Regarding `COc1ccc(N2CCN(C(=O)CCN(Cc3ccc(F)cc3)c3ccc(Cl)c(Cl)c3)CC2)cc1`, the IC50 in [1] is 4.9 µM.

With `CCOC(=O)c1ccc(NC(=O)CCN(Cc2ccc(F)cc2)c2cccc(Oc3ccccc3)c2)cc1`, the concentration for half-maximal inhibition (IC50) in series [1] came out at 0.24 µM. On the same count and under the same terms, under `CCOC(=O)c1ccc(NC(=O)CCN(Cc2ccc(F)cc2)c2ccc(Cl)c(Cl)c2)cc1` stands 2 µM; under `CCOC(=O)c1ccc(NC(=O)CCN(Cc2ccc(F)cc2)c2ccc(-c3ccccc3)cc2)cc1`, 16.7 µM.

Regarding `CCOC(=O)c1ccc(N2CCN(C(=O)CCN(Cc3ccc(F)cc3)c3ccc(Cl)c(-c4ccccc4)c3)CC2)cc1`, the IC50 in series [1] came to 2.9 µM. For `CCOC(=O)c1ccc(N2CCN(C(=O)CCN(Cc3ccc(F)cc3)c3ccc(Cl)c(Cl)c3)CC2)cc1`, in series [1], the IC50 was found to be 12.4 µM.

In the case of `CCOC(=O)c1ccc(NC(=O)CCN(c2ccc(Cl)c(-c3ccccc3)c2)S(=O)(=O)c2ccc(F)cc2)cc1`, the IC50 in series [1] came to 1.3 µM. Same read-out and setting: under `CCOC(=O)c1ccc(NC(=O)CCN(c2cc(Cl)cc(-c3ccccc3)c2)S(=O)(=O)c2ccc(F)cc2)cc1` stands 2.3 µM. Still for that read-out and setting: under `CCOC(=O)c1ccc(N2CCN(C(=O)CCN(Cc3ccc(F)cc3)c3cccc(Oc4ccccc4)c3)CC2)cc1` stands 0.69 µM. Same read-out and setting: under `CCOC(=O)c1ccc(NC(=O)CCN(Cc2ccc(C(F)(F)F)cc2)c2ccc(Cl)c(Cl)c2)cc1` stands 9.5 µM; under `COc1ccc(N2CCN(C(=O)CCN(Cc3ccc(F)cc3)c3ccc(Oc4ccccc4)cc3)CC2)cc1`, more than 50 µM.

On to `CCOC(=O)c1ccc(NC(=O)CCN(Cc2ccc(F)cc2)c2cc(Cl)cc(-c3ccccc3)c2)cc1`, for which the 50% inhibitory concentration (IC50) in [1] turned out to be 3.4 µM. One may read the inhibition in vivo as the relative decrease from the control value, in per cent. A lower inhibition in vivo goes with a response near the control. Consider `CCOC(=O)c1ccc(NC(=O)CCN(c2cccc(Oc3ccccc3)c2)S(=O)(=O)c2ccc(F)cc2)cc1`, for which the 50% inhibitory concentration (IC50) in series [1] came out at 0.15 µM. In addition, the metabolised at 0.285 h, 100 µM in [2] and in [3] was 36% throughout. The inhibition entry in series [4] is “Dose-dependent effect”. Further, the inhibition in vivo at 20 mg/kg/day in [5] stood at 19.3%. This compound also yielded an inhibition in vivo at 50 mg/kg/day in series [6] of 36.2%. Also, in series [7], the inhibition in vivo at 100 mg/kg/day is 45.8%. Besides, the Activity result in series [8] was “Dose-dependent effect”; in series [9] it was 16.2%; in series [10], 34.7%; in series [11] it was 48.2%; in [12], “Non-toxic”. `CCOC(=O)c1ccc(NC(=O)CCN(Cc2ccc(F)cc2)c2ccc(Cl)c(-c3ccccc3)c2)cc1`: the concentration for half-maximal inhibition (IC50) in series [1] amounted to 2.7 µM.
